In article PMC4610143 (Journal of biomolecular screening, 2014):
“Also recorded” adds a separate entry of the source.

Key:
PIP5K1C = PIP5K1C (Homo sapiens, UniProt O60331); experiment: ATP competition studies using the mobility shift assay; assay type: biochemical; conditions: read-out: average Ki; two independent ATP competition studies
PIP5K1C and PIP4K2C = conditions: for PIP5K1C and PIP4K2C; cited from earlier work
DRG neurons = conditions: cited from earlier work
pain hypersensitivity = conditions: injected intrathecally, rodent models of chronic pain; listed as UNC3230; cited from earlier work

Sequence of PIP5K1C (O60331 whole entry): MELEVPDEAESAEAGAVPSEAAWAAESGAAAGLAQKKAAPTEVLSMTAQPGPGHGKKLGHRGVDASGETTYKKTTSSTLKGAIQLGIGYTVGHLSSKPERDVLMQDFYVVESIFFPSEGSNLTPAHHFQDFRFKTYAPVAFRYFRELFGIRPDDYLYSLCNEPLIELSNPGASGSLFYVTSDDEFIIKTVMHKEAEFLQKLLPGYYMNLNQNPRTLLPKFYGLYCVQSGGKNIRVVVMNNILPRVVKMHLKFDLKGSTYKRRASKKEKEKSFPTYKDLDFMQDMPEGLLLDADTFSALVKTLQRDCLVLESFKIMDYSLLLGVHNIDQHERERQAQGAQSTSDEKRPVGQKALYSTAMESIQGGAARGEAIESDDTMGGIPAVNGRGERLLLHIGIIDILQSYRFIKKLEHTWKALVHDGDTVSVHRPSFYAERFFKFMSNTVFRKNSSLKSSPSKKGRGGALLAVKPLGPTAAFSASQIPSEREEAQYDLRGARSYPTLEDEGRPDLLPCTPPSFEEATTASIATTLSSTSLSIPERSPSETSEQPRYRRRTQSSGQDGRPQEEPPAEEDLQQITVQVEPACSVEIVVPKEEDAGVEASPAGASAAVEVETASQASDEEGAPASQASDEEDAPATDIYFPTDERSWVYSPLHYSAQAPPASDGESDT

Ki (PIP5K1C): 23 nM
Compound: NC(=O)c1nc(Nc2ccccc2)sc1NC(=O)C1CCCCC1 [Compound 1]
selectivity (PIP5K1C and PIP4K2C): highly selective
effect on PIP2 in DRG neurons (DRG neurons): reduced PIP2
effect on pain hypersensitivity / nociceptive sensitization (pain hypersensitivity): reduce nociceptive sensitization; also recorded: attenuated pain hypersensitivity
